{"source": "patent US11129910B2", "about": "“Specific conjugation linkers, specific immunoconjugates thereof, methods of making and uses such conjugates thereof” (priority 2016, dated 2021)", "key": {"[1]": {"system": "NCI-N87, a human gastric carcinoma cell line", "assay": "In vitro cytotoxicity (MTT) assay", "type": "cell-based", "details": "NCI-N87 cells, 120 hours incubation, read-out: N87 cell (Ag+) IC50", "method": "The cell line used in the cytotoxicity assays was NCI-N87, a human gastric carcinoma cell line. The cells were grown in RPMI-1640 with 10% FBS. To run the assay, the cells (180 μl, 6000 cells) were added to each well in a 96-well plate and incubated for 24 hours at 37° C. with 5% CO2. Next, the cells were treated with test compounds (20 μl) at various concentrations in appropriate cell culture medium (total volume, 0.2 mL). The control wells contain cells and the medium but lack the test compounds. The plates were incubated for 120 hours at 37° C. with 5% CO2. MTT (5 mg/ml) was then added to the wells (20 μl) and the plates were incubated for 1.5 hr at 37° C. The medium was carefully removed and DMSO (180 μl) was added afterward. After it was shaken for 15 min, the absorbance was measured at 490 nm and 570 nm with a reference filter of 620 nm. The inhibition % was calculated according to the following equation: inhibition %=[1-(assay-blank)/(control-blank)]×100."}, "[2]": {"system": "human gastric carcinoma N-87 cell line tumor xenograft", "assay": "Antitumor activity in vivo, tumor xenograft model", "design": "species or system BALB/c Nude mice", "method": "The in vivo efficacy of conjugates 196a, 201, 206, 354, 358, 370, 377, 385, and 407 along with T-DM1 were evaluated in a human gastric carcinoma N-87 cell line tumorxenograft models. Five-week-old female BALB/c Nude mice ([…]) were inoculated subcutaneously in the area under the right shoulder with N-87 carcinoma cells (5×10^6 cells/mouse) in 0.1 mL of serum-free medium. The tumors were grown for 8 days to an average size of 130 mm^3. The animals were then randomly divided into […] (6 animals per group). The first group of mice served as the control group and was treated with the phosphate-buffered saline vehicle. The remaining […] were treated with conjugates 196a, 201, 206, 354, 358, 370, 377, 385, 407 and T-DM1 respectively at dose of 6 mg/Kg administered intravenously. Three dimensions of the tumor were measured every 4 days and the tumor volumes were calculated using the formula tumor volume=1/2 (length×width×height). The weight of the animals was also measured at the same time. A mouse was sacrificed when any one of the following criteria was met: (1) loss of body weight of more than 20% from pretreatment weight, (2) tumor volume larger than 1500 mm^3, (3) too sick to reach food and water, or (4) skin necrosis. A mouse was considered to be tumor-free if no tumor was palpable."}}}
{"substance": "T-DM1", "values": [{"measurement": "IC50", "setting": "[1]", "value": 70, "unit": "pM"}, {"measurement": "duration of tumor growth inhibition", "setting": "[2]; 6 mg/Kg intravenously", "value": 38, "unit": "days"}, {"measurement": "elimination / eradication of the tumors", "setting": "[2]; 6 mg/Kg, i.v., one injection", "value": "not able to eliminate the tumors"}]}
